The values below come from US20230303561A1, “PYRIMIDINONE DERIVATIVE, PREPARATION METHOD THEREOF AND USE THEREOF IN RESISTING MYCOBACTERIUM TUBERCULOSIS INFECTION” (INSTITUTE OF MEDICINAL BIOTECHNOLOGY, CHINESE ACADEMY OF …, priority 2020, published 2023).

The test relates to MTB H37Rv. Briefly: Bacteriostasis experiment: MIC in 96-well plate, two-fold dilution method. It counts as cell-based, Mycobacterium tuberculosis. The conditions noted are these: for MIC: Mycobacterium tuberculosis, ATCC 27294 / H37Rv, 240 h, read-out: Inhibitory activity against Mycobacterium tuberculosis, MIC, MTB H37Rv; for MIC / Inhibitory activity against Mycobacterium tuberculosis, MIC, MTB H37Rv: MTB H37Rv (ATCC 27294), 7H9 medium, 37° C., about 10 days; for anti-mycobacterium tuberculosis MIC compared with the positive control drug INH: MTB H37Rv, statement on Table 1 data.

Converted amounts (≈) assume the structure as drawn.

One may read the MIC as the smallest concentration in the dilution series that meets the test's criterion for growth inhibition. Regarding `CCCSc1nc2c(c(=O)[nH]1)C(c1ccccc1OC)CC(=O)N2` (stereo not shown) [LSL-9-48, 2-propylmercapto-5-(2-methoxyphenyl)-5,6-dihydropyrido[2,3-d]pyrimidin-4,7(3H,8H)-dione], the MIC worked out at 16 µg/mL (≈ 46.3 µM). Same read-out and setting: then `CCCSc1nc2c(c(=O)[nH]1)C(c1cccc(O)c1)CC(=O)N2` (stereo not shown) [LSL-9-49, 2-propylmercapto-5-(3-hydroxyphenyl)-5,6-dihydropyrido[2,3-d]pyrimidin-4,7(3H,8H)-dione], with 16 µg/mL (≈ 48.3 µM); and `CCCSc1nc2c(c(=O)[nH]1)C(c1ccc(C#N)cc1)CC(=O)N2` (stereo not shown) [LSL-10-01, 2-propylmercapto-5-(4-cyanophenyl)-5,6-dihydropyrido[2,3-d]pyrimidin-4,7(3H,8H)-dione], with 16 µg/mL (≈ 47 µM); and `CCCSc1nc2c(c(=O)[nH]1)C(c1cccc(C#N)c1)CC(=O)N2` (stereo not shown) [LSL-10-02, 2-propylmercapto-5-(3-cyanophenyl)-5,6-dihydropyrido[2,3-d]pyrimidin-4,7(3H,8H)-dione], with 6 µg/mL (≈ 17.6 µM). Consider `CCCSc1nc2c(c(=O)[nH]1)C(c1ccccc1[N+](=O)[O-])CC(=O)N2` (stereo not shown) [LSL-10-03, 2-propylmercapto-5-(2-nitrophenyl)-5,6-dihydropyrido[2,3-d]pyrimidin-4,7(3H,8H)-dione], for which the MIC is 8 µg/mL (≈ 22.2 µM). Consider `CCCSc1nc2c(c(=O)[nH]1)C(c1ccc(O)c([N+](=O)[O-])c1)CC(=O)N2` (stereo not shown) [LSL-10-04, 2-propylmercapto-5-(4-hydroxy-3-nitrophenyl)-5,6-dihydropyrido[2,3-d]pyrimidin-4,7(3H,8H)-dione], for which the “anti-mycobacterium tuberculosis MIC compared with the positive control drug INH” value was “equivalent to that of the positive control drug INH” and the MIC worked out at 0.625 µg/mL (≈ 1.66 µM). On to `CCCSc1nc2c(c(=O)[nH]1)C(c1ccccc1)CC(=O)N2` (stereo not shown) [LSL-10-05, 2-propylmercapto-5-phenyl-5,6-dihydropyrido[2,3-d]pyrimidin-4,7(3H,8H)-dione], for which the MIC is 8 µg/mL (≈ 25.4 µM). Same read-out and setting: then `CCCSc1nc2c(c(=O)[nH]1)C(c1ccnc3ccccc13)CC(=O)N2` (stereo not shown) [LSL-10-06, 2-propylmercapto-5-(quinolin-4-yl)-5,6-dihydropyrido[2,3-d]pyrimidin-4,7(3H,8H)-dione], with 4 µg/mL (≈ 10.9 µM). Still for that read-out and setting: then `CCCSc1nc2c(c(=O)[nH]1)C(c1cccc3ncccc13)CC(=O)N2` (stereo not shown) [LSL-10-07, 2-propylmercapto-5-(quinolin-5-yl)-5,6-dihydropyrido[2,3-d]pyrimidin-4,7(3H,8H)-dione], with 16 µg/mL (≈ 43.7 µM); and `CCCCSc1nc2c(c(=O)[nH]1)C(c1ccc(OCCC)cc1)CC(=O)N2` (stereo not shown) [LSL-10-23, 2-butylmercapto-5-(4-propoxyphenyl)-5,6-dihydropyrido[2,3-d]pyrimidin-4,7(3H,8H)-dione], with 16 µg/mL (≈ 41.3 µM). Same read-out and setting: then `CCCSc1nc2c(c(=O)[nH]1)C(c1ccc(N3CCOCC3)cc1)CC(=O)N2` (stereo not shown) [LSL-10-43, 2-propylmercapto-5-(4-morpholinophenyl)-5,6-dihydropyrido[2,3-d]pyrimidin-4,7(3H,8H)-dione], with 1 µg/mL (≈ 2.5 µM); and `CCCSc1nc2c(c(=O)[nH]1)C(c1ccc(N3CCCCC3)cc1)CC(=O)N2` (stereo not shown) [LSL-10-48, 2-propylmercapto-5-(4-(piperidin-1-yl)phenyl)-5,6-dihydropyrido[2,3-d]pyrimidin-4,7(3H,8H)-dione], with 2 µg/mL (≈ 5.02 µM). On to `CCCSc1nc2c(c(=O)[nH]1)C(c1ccc(N3CCSCC3)cc1)CC(=O)N2` (stereo not shown) [LSL-10-50, 2-propylmercapto-5-(4-thiomorpholinophenyl)-5,6-dihydropyrido[2,3-d]pyrimidin-4,7(3H,8H)-dione], for which the MIC came to 1 µg/mL (≈ 2.4 µM).

Regarding `CCCSc1nc2nccc(-c3ccc(OC)cc3)c2c(=O)[nH]1` [LSL-11-02, 2-propylmercapto-5-(4-methoxyphenyl)-pyrido[2,3-d]pyrimidin-4(3H)-one], the “anti-mycobacterium tuberculosis MIC compared with the positive control drug INH” value is given as “equivalent to that of the positive control drug INH” and the MIC turned out to be 0.5 µg/mL (≈ 1.53 µM).

Take `CCCSc1nc2nccc(-c3ccc4ncccc4c3)c2c(=O)[nH]1` [LSL-11-08, 2-propylmercapto-5-(quinolin-6-yl)-pyrido[2,3-d]pyrimidin-4(3H)-one]: the “anti-mycobacterium tuberculosis MIC compared with the positive control drug INH” value was “equivalent to that of the positive control drug INH” and the MIC is 0.25 µg/mL (≈ 0.718 µM).

Consider `CCCSc1nc2[nH]c(=O)cc(-c3ccc(OC)cc3)c2c(=O)[nH]1` [LSL-11-09, 2-propylmercapto-5-(4-methoxyphenyl)-pyrido[2,3-d]pyrimidin-4,7(3H,8H)-dione], for which the “anti-mycobacterium tuberculosis MIC compared with the positive control drug INH” value is listed as “equivalent to that of the positive control drug INH” and the MIC was determined as 0.25 µg/mL (≈ 0.728 µM). Regarding `CCCSc1nc2c(c(=O)[nH]1)C(c1ccc3occc3c1)CC(=O)N2` (stereo not shown) [LSL-11-17, 2-propylmercapto-5-(benzofuran-5-yl)-5,6-dihydropyrido[2,3-d]pyrimidin-4,7(3H,8H)-dione], the “Inhibitory activity against Mycobacterium tuberculosis, MIC, MTB H37Rv” value turned out to be 4 µg/mL. For the compound `CCCSc1nc2c(c(=O)[nH]1)C(c1nc3ccccc3s1)CC(=O)N2` (stereo not shown) [LSL-11-18, 2-propylmercapto-5-(benzothiazol-2-yl)-5,6-dihydropyrido[2,3-d]pyrimidin-4,7(3H,8H)-dione], the MIC was found to be 2 µg/mL (≈ 5.37 µM).

For the compound `CCCSc1nc2c(c(=O)[nH]1)C(c1ccc(Sc3ccccc3)cc1)CC(=O)N2` (stereo not shown) [LSL-11-19, 2-propylmercapto-5-(4-phenylthiophenyl)-5,6-dihydropyrido[2,3-d]pyrimidin-4,7(3H,8H)-dione], the MIC was 8 µg/mL (≈ 18.9 µM).

With `CCCSc1nc2c(c(=O)[nH]1)C(c1ccc(S(C)(=O)=O)cc1)CC(=O)N2` (stereo not shown) [LSL-11-20, 2-propylmercapto-5-(4-methanesulfonylphenyl)-5,6-dihydropyrido[2,3-d]pyrimidin-4,7(3H,8H)-dione], the MIC was found to be 1 µg/mL (≈ 2.54 µM). As to `CCCSc1nc2c(c(=O)[nH]1)C(c1ccc(SC)cc1)CC(=O)N2` (stereo not shown) [LSL-11-21, 2-propylmercapto-5-(4-methylthiophenyl)-5,6-dihydropyrido[2,3-d]pyrimidin-4,7(3H,8H)-dione], the “anti-mycobacterium tuberculosis MIC compared with the positive control drug INH” value was “equivalent to that of the positive control drug INH” and the MIC amounted to 0.5 µg/mL (≈ 1.38 µM).

Take `CCCSc1nc2c(c(=O)[nH]1)C(c1ccc(Br)c([N+](=O)[O-])c1)CC(=O)N2` (stereo not shown) [LSL-11-22, 2-propylmercapto-5-(3-nitro-4-bromophenyl)-5,6-dihydropyrido[2,3-d]pyrimidin-4,7(3H,8H)-dione]: the MIC worked out at 1 µg/mL (≈ 2.28 µM).

With `CCCSc1nc2c(c(=O)[nH]1)C(c1ccc(C(=O)O)cc1)CC(=O)N2` (stereo not shown) [LSL-11-24, 2-propylmercapto-5-(4-carboxyphenyl)-5,6-dihydropyrido[2,3-d]pyrimidin-4,7(3H,8H)-dione], the MIC was found to be 2 µg/mL (≈ 5.56 µM). Same read-out and setting: then `CCCSc1nc2c(c(=O)[nH]1)C(c1ccc(Br)cc1[N+](=O)[O-])CC(=O)N2` (stereo not shown) [LSL-11-25, 2-propylmercapto-5-(2-nitro-4-bromophenyl)-5,6-dihydropyrido[2,3-d]pyrimidin-4,7(3H,8H)-dione], with 4 µg/mL (≈ 9.11 µM). The same measure, in the same setting: then `CCCSc1nc2c(c(=O)[nH]1)C(c1ccccn1)CC(=O)N2` (stereo not shown) [LSL-11-26, 2-propylmercapto-5-(pyridin-2-yl)-5,6-dihydropyrido[2,3-d]pyrimidin-4,7(3H,8H)-dione], with 2 µg/mL (≈ 6.32 µM). `CCCSc1nc2c(c(=O)[nH]1)C(c1ccc(OCC(C)C)cc1)CC(=O)N2` (stereo not shown) [LSL-11-27, 2-propylmercapto-5-(4-isobutoxyphenyl)-5,6-dihydropyrido[2,3-d]pyrimidin-4,7(3H,8H)-dione]: the MIC amounted to 1 µg/mL (≈ 2.58 µM). Consider `CCCSc1nc2c(c(=O)[nH]1)C(c1cccnc1)CC(=O)N2` (stereo not shown) [LSL-11-28, 2-propylmercapto-5-(pyridin-3-yl)-5,6-dihydropyrido[2,3-d]pyrimidin-4,7(3H,8H)-dione], for which the MIC turned out to be 2 µg/mL (≈ 6.32 µM). Same read-out and setting: then `CCCSc1nc2c(c(=O)[nH]1)C(c1ccncc1)CC(=O)N2` (stereo not shown) [LSL-11-29, 2-propylmercapto-5-(pyridin-4-yl)-5,6-dihydropyrido[2,3-d]pyrimidin-4,7(3H,8H)-dione], with 8 µg/mL (≈ 25.3 µM).

For `CCCSc1nc2c(c(=O)[nH]1)C(C1CCCCC1)CC(=O)N2` (stereo not shown) [LSL-11-30, 2-propylmercapto-5-cyclohexyl-5,6-dihydropyrido[2,3-d]pyrimidin-4,7(3H,8H)-dione], the MIC came out at 16 µg/mL (≈ 49.8 µM). For `CCCSc1nc2c(c(=O)[nH]1)C(C1CCCC1)CC(=O)N2` (stereo not shown) [LSL-11-31, 2-propylmercapto-5-cyclopentyl-5,6-dihydropyrido[2,3-d]pyrimidin-4,7(3H,8H)-dione], the MIC worked out at 16 µg/mL (≈ 52 µM). Still for that read-out and setting: then `CCCSc1nc2c(c(=O)[nH]1)C(c1ccc3c(c1)CCO3)CC(=O)N2` (stereo not shown) [LSL-11-33, 2-propylmercapto-5-(2,3-dihydrobenzofuran-5-yl)-5,6-dihydropyrido[2,3-d]pyrimidin-4,7(3H,8H)-dione], with 2 µg/mL (≈ 5.6 µM); and `CCCSc1nc2c(c(=O)[nH]1)C(c1ccc3nccnc3c1)CC(=O)N2` (stereo not shown) [LSL-11-34, 2-propylmercapto-5-(quinoxalin-6-yl)-5,6-dihydropyrido[2,3-d]pyrimidin-4,7(3H,8H)-dione], with 4 µg/mL (≈ 10.9 µM). Still for that read-out and setting: in the case of `CCCSc1nc2c(c(=O)[nH]1)C(c1ccc(OC)nc1)CC(=O)N2` (stereo not shown) [LSL-11-35, 2-propylmercapto-5-(6-methoxypyridin-3-yl)-5,6-dihydropyrido[2,3-d]pyrimidin-4,7(3H,8H)-dione] it was 1 µg/mL (≈ 2.89 µM); in that of `CCCSc1nc2c(c(=O)[nH]1)C(c1cnc3ccccc3c1)CC(=O)N2` (stereo not shown) [LSL-11-36, 2-propylmercapto-5-(quinolin-3-yl)-5,6-dihydropyrido[2,3-d]pyrimidin-4,7(3H,8H)-dione], 8 µg/mL (≈ 21.8 µM). On to `CCCSc1nc2c(c(=O)[nH]1)C(c1ccoc1)CC(=O)N2` (stereo not shown) [LSL-11-38, 2-propylmercapto-5-(furan-3-y1)-5,6-dihydropyrido[2,3-d]pyrimidin-4,7(3H,8H)-dione], for which the “Inhibitory activity against Mycobacterium tuberculosis, MIC, MTB H37Rv” value stood at 1 µg/mL.
